In patent US20090156530A1, “Norepinepherine Transporter Mutants and Uses Thereof” (priority 2007, published 2009):

Key:
NET [1] = molecular target: T1, NET (Mus musculus, UniProt O55192); experiment: NE transport assay in cortical synaptosomes; format: biochemical
T1 construct: The pellets were collected as synaptosomes; from tissue; host or cells: mouse (C57/B16) brain cortex synaptosomes
Protocol: Cell culture, transfection of cDNA or siRNA, generation of stable cell lines, preparation of cortical synaptosomes. CHO cells were maintained in DMEM/10% fetal bovine serum (FBS), 2 mM L-glutamine (L-Glu), 100 IU/ml penicillin, 100 μg/ml streptomycin (pen/strep). […]. The stable clones were selected using hygromycin B ([…], Invitrogen) and maintained in Ham's F12/10% FBS/L-Glu/pen/strep supplemented with Zeocin […] (Invitrogen). CAD-NET cells were generated by stably transfecting HA-NET in pcDNA3 into CAD cells and maintained in DMEM/F12/8% FBS/L-Glu/pen/strep/200 μg/ml of G418 (Mediatech). TransIT-LT1 transfection reagent (Mirus) was used for all transfections. All cells were plated on poly-D-lysine coated plates and incubated for 48 hrs for cDNA transfection and for 48 to 72 hrs for siRNA transfection prior to assays. For synaptosomal preparations, brain cortex was dissected from mice (C57/B16, Harlan) and homogenized in 10 mM HEPES, 0.32 M Sucrose, pH 7.4 using a Teflon pestle/homogenizer. Homogenates were centrifuged at 1,000 g, 5 min at 4° C., and then the supernatant were re-centrifuged at 16,000 g, 20 min at 4° C. The pellets were collected as synaptosomes.
Assay buffers, transport assays, Ca^2+ imaging. NE transport assays on synaptosomes (50-100 μg/assay reaction) or cells were described previously (Sung et al., 2003). Uptake assay was carried out in KRH/Ca^2+ (mM: 120 NaCl, 4.7 KCl, 1.2 KH2PO4, 10 HEPES, 1.2 MgSO4, 2.2 CaCl2, pH 7.4,) with 0.1 mM pargylnine, ascorbic acid, tropolone, and 1.8 mg/ml glucose, otherwise mentioned. KRH/EGTA is KRH with 0.2 mM EGTA and without CaCl2. When KRH/EGTA was used, KRH/Ca^2+ for the parallel experiment contained 0.2 mM EGTA as well. Uptake assays were initiated by addition of [^3H]-NE (1-[7,8-^3H] noradrenaline, Amersham Pharmacia) at 50 nM final concentration. For kinetics assays, 50, 100, 200 nM of [^3H]-NE, 400, 600, 800, 1,000, 1,200, 1,500 nM of 20% [^3H]-NE and 80% of unlabeled NE (Sigma) were used. Nonspecific uptake was defined using 1-10 μM desipramine. All assays were carried out at 37° C. for 10 min in triplicates. Ca^2+ imaging was performed as described previously (Apparsundaram et al., 2001). CHO cells were pre-loaded with […] fura-2/acetoxymethyl ester (fura-2/AM, Molecular Probe) and superfused with KRH/EGTA and 1 μM thapsigargin for 10 min. The medium was replaced with KRH/Ca^2+ or KRH/EGTA before measurement of intracellular Ca^2+. All experiments derive from at least 3 independent data and mean values were evaluated using a two-tailed Student's t-test or a one-way ANOVA, followed by Tukey's test, with p<0.05 considered significant (*). Data were analyzed using GraphPad Prism 4.
Protocols for restoration and depletion of Ca^2+ For uptake assay, synaptosomes were pre-incubated with drugs in KRH/Ca^2+. For increase of Ca^2+, synaptosomes were re-suspended in KRH/EGTA, transferred to fresh KRH/EGTA (EGTA to EGTA) or KRH/Ca^2+ (EGTA to Ca^2+), and incubated at 37° C. for 5 min prior to the addition of radiolabeled NE. NE uptake activity of synaptosomes in KRH/Ca^2+ was compared to the activity of synaptosomes in KRH/EGTA. For reduction of Ca^2+, synaptosomes were first resuspended in KRH/Ca^2+, divided into 2 aliquots, replaced with fresh KRH/Ca^2+ (Ca^2+ to Ca^2+) or KRH/EGTA (Ca^2+ to EGTA), and incubated at 37° C. for 5 min prior to the addition of radiolabeled NE. NE uptake activity of synaptosomes in KRH/EGTA was compared to the activity of synaptosomes in KRH/Ca^2+. Control cells were treated the same way except use of complete media with vehicle. Restoration of Ca^2+ for surface biotinylation was carried out by incubating cells in KRH/EGTA with 0.1-1 μM thapsigargin for 10 min at 37° C. to deplete Ca^2+. Cells were washed once with KRH/EGTA, replaced with KRH/EGTA or KRH/Ca^2+, and incubated for 1 min at RT to 5 min at 37° C. prior to biotinylation. […]

NET [2] = experiment: Whole cell patch clamp recording of NET currents in SCG neurons; format: cell-based, rat; details: 200 μM CdCl2; 5 μM KN93 15 min; 2 μM STO609 20 min
Protocol: Whole Cell Patch Clamp Recording of NET currents. Patch clamp experiments were performed using an amplifier Axopatch 200B with a low-pass filter set at 1 kHz. Quartz patch pipettes with 5-7 MΩ resistance were pulled by a programmable puller (model P-2000, Sutter Instruments Novato, Calif.) and filled with the internal solution containing (in mM): 120 KCl, 2 MgCl2, 10 HEPES, 2 MgATP, 30 dextrose and adjusted to pH 7.35. SCG neurons were washed twice with a control solution containing mMs 130 NaCl, 5 CaCl2, 0.5 MgCl2, 1.3 KCl, 10 HEPES, 34 dextrose adjusted to pH 7.35 before experiments. NET-mediated current was defined as the current recorded in control condition minus the current recorded in presence of 5 μM desipramine. Neurons were clamp at −50 mV and the NET-mediated current was recorded by stepping the membrane voltage to −120 mV for 500 ms before and after a 2 sec depolarizing step at −10 mV. NET-mediated current was studied in the control condition, in presence of 200 μM CdCl2, after 15 min preincubation with 5 μM KN93 and after 20 min preincubation with 2 μM STO609.

human NET = experiment: Surface biotinylation of HA-NET in transiently transfected CHO cells; format: cell-based; details: CHO cells, 5 μM KN93 30 min or 5 μM STO-609 1 hour
NET [3] = experiment: NE transport assay in CAD-NET cells; format: cell-based, human; details: KRH/Ca^2+
Protocol: Uptake assay was carried out in KRH/Ca^2+ (mM: 120 NaCl, 4.7 KCl, 1.2 KH2PO4, 10 HEPES, 1.2 MgSO4, 2.2 CaCl2, pH 7.4,) with 0.1 mM pargylnine, ascorbic acid, tropolone, and 1.8 mg/ml glucose, otherwise mentioned. KRH/EGTA is KRH with 0.2 mM EGTA and without CaCl2. When KRH/EGTA was used, KRH/Ca^2+ for the parallel experiment contained 0.2 mM EGTA as well. […] Nonspecific uptake was defined using 1-10 μM desipramine. All assays were carried out at 37° C. for 10 min in triplicates. […] All experiments derive from at least 3 independent data and mean values were evaluated using a two-tailed Student's t-test or a one-way ANOVA, followed by Tukey's test, with p<0.05 considered significant (*).

NET [4] = experiment: Surface NET immunolabeling in cultured SCG neurons on high K+ depolarization; format: cell-based, rat; details: SCG cultures, high potassium buffer, preincubated with drug
Protocol: Primary neuronal culture, immunohistochemistry, electrophysiology. […] Surface-labeling of NET has been preformed by staining non-fixed SCG culture with anti-NET sera 43408 as described in (Savchenko et al., 2003). For detection of plasma membrane changes+/−depolarization, SCG neurons were preincubated with normal medium (2.5 mM K+) or in 40 mM or 90 mM K^+ for 15 min followed by incubation with NET 43408 antibody for 1 hr at RT in the absence of detergent. Cells were washed and fixed with 3% p-formaldehyde for 10 min prior to visualization of NET labeling using Cy3-conjugated anti-rabbit antibodies. Specimens from multiple fields were examined with a Zeiss LSM 510 Meta imaging system equipped with internal He/Ne and external Ar/Kr lasers. Images were collected were averaged across multiple fields of replicate experiments (n=3), pseudocolored for presentation, and pixel intensity calculated over processes immunopositive by double-staining for tubulin immunoreactivity in Metamorph.

T1 sequence (O55192 whole entry): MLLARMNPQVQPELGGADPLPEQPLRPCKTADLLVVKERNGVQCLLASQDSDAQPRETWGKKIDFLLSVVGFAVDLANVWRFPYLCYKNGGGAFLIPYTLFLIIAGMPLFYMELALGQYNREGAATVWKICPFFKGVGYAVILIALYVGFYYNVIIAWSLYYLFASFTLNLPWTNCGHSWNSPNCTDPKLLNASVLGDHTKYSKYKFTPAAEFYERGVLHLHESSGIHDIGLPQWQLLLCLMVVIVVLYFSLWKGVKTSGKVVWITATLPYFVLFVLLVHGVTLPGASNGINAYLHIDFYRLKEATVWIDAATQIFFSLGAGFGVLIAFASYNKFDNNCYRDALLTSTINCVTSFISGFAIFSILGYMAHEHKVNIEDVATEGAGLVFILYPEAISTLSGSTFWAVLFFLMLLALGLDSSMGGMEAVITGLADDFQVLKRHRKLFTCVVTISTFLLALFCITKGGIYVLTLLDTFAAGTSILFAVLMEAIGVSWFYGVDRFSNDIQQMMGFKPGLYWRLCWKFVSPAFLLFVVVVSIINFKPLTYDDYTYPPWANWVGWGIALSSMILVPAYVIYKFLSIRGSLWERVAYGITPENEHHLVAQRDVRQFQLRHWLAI

With KN93 the “NE transport in KRH/Ca^2+ after drug treatment” value (NET [1]; 0.1-1 μM BIM, 5 μM KN93 or 10 μM W7, 15 min at 37° C.) was “inhibited NE transport”, the “NE transport after addition of Ca^2+, % of control” value (NET [1]; drug pre-treated synaptosomes, KRH/EGTA to KRH/Ca^2+ (2.2 mM final), 5 μM KN93) was 140.5+/−11.2% and the “NE uptake when switched to KRH/EGTA, % of NE uptake in KRH/Ca^2+” value (NET [1]; drug pre-treated synaptosomes, 5 μM KN93) was 67.5+/−7.2%. The “Effect on reduction in NET activity on switch from KRH/Ca^2+ to KRH/EGTA” value (NET [1]; pre-incubation with drug) was “blunted”, the “Effect on elevation in NET activity triggered by addition of Ca^2+” value (NET [1]; pre-incubation with drug, KRH/EGTA to KRH/Ca^2+) was “significantly blunted the elevation in NET activity” and the “Effect on increase in NET current triggered by prior depolarization” value (NET [2]) was “prevented the stimulation-elicited increase in NET currents”. The “Effect on Ca^2+-depletion elicited reduction of NET surface density” value (human NET; Ca^2+ depletion) was “blocked”, the “Effect on Ca^2+-stimulated elevation of NET surface density” value (human NET; KRH/EGTA to KRH/Ca^2+) was “blocked” and the “Basal NE transport” value (NET [3]) was “able to suppress NE transport”. The “Depolarization triggered increase of surface NET density” value (NET [4]) was “failed to increase surface NET density”.
